Structures can show the parent of a compound that is named as a salt. Where two headings read alike, the source gives them in different places.
Assays:
SARS-CoV-2 [1] = assay: microbe, parasite or virus in culture; type: cell-based; settings: for EC50: Severe acute respiratory syndrome coronavirus 2, Huh7.5, 48 h, read-out: SARS-CoV-2 EC50
[2] = Cell viability assay (MTT) in Huh7.5 cells; type: cell-based, human; settings: human, Huh7.5 cells, Huh7.5 (B), read-out: SARS-CoV-2 CC50
Description: (§1) Cell viability was monitored by a mitochondrial activity test using methyl-thiazolyl-tetrazolium (MTT, Sigma). After 48 hours of drug treatment, cells were treated with 1 mg/ml of MTT during 3 hours at 37° C. The supernatants were removed and the MTT crystals were dissolved using DMSO and a shaker. The absorbance was read with a Tecan Spark at 570 nm with reference at 650 nm.
(§2) Only the most promising molecules or those studied in synergy were tested in Calu3 cells.

rHCoVs-OC43 = assay: microbe, parasite or virus in culture; type: cell-based
SARS-CoV-2 [3] = assay: Drug tests in SARS-CoV-2 model, Calu3 cells, viral titration by plaque assay in Vero E6; settings: read-out: SARS-CoV-2 EC50; Calu3 (C), MOI 0.05, 48 h treatment
[4] = Cell viability assay (MTT) in HRT-18 cells; settings: human, CC50 (μM)
[5] = Cell viability assay (MTT) in Calu3 cells; type: cell-based, Human; settings: human, Calu3 cells, Calu3 (C), read-out: SARS-CoV-2 CC50
Description: as §1, §2

HRT-18 cells = assay: Cell viability assay (MTT) in HRT-18 cells
[6] = 48 h, drug 2 alone (fast synergy screening table), read-out: IC50
[7] = drug 2 alone (fast synergy screening table), read-out: IC50
[8] = drug alone, HRT-18 cells, MOI 0.025, 48 h treatment, decrease of Rluc, read-out: EC50
[9] = drug 2 alone (fast synergy screening table)
[10] = drug alone, HRT-18 cells, 48 h treatment, MTT

Compound	EC50 (rHCoVs-OC43; [8])	CC50 at 48 h [4, 9]	CC50 at 48 h [4, 10]	further results
Cc1c(O)cccc1C(=O)N[C@@H](CSc1ccccc1)[C@H](O)CN1C[C@H]2CCCC[C@H]2C[C@H]1C(=O)NC(C)(C)C [Nelfinavir mesylate]	2600 nM	> 10 µM	> 10 µM	EC50 (SARS-CoV-2 [1]): 1700 nM; CC50 at 48 h [2]: > 10000 nM; IC50 (rHCoVs-OC43; [6]): 2600 nM; IC50 (rHCoVs-OC43; [7]): 2600 nM; EC50 (SARS-CoV-2 [3]): 110 nM; CC50 at 48 h [5]: > 10000 nM
COC(=O)C1=C(C)NC(C)=C(C(=O)OCC(C)C)C1c1ccccc1[N+](=O)[O-] (stereo not drawn) [Nisoldipine]	2350 nM		> 10 µM	
CC(=O)Oc1ccccc1C(=O)Nc1ncc([N+](=O)[O-])s1 [Nitazoxanide]	1330 nM	> 10 µM	> 10 µM	EC50 (SARS-CoV-2 [1]): 540 nM; CC50 at 48 h [2]: > 10000 nM; IC50 (rHCoVs-OC43; [6]): 1330 nM
CCCCCCCCCCC[C@@H](C[C@@H]1OC(=O)[C@H]1CCCCCC)OC(=O)[C@H](CC(C)C)NC=O [Orlistat]	7300 nM		> 10 µM	
C[C@@H]1O[C@@H](O[C@H]2C[C@@H](O)[C@]3(CO)[C@H]4[C@H](O)C[C@]5(C)[C@@H](C6=CC(=O)OC6)CC[C@]5(O)[C@@H]4CC[C@]3(O)C2)[C@H](O)[C@H](O)[C@H]1O [Ouabain]	16 nM	0.028 µM	0.028 µM	IC50 (rHCoVs-OC43; [6]): 16 nM
CC(C)COc1ccc(CNC(=O)N(Cc2ccc(F)cc2)C2CCN(C)CC2)cc1 [Pimanavserin]	6000 nM			CC50 (HRT-18 cells; [10]): > 10000 nM
O=C(Nc1ccc(Oc2ccc(Cl)cc2)c(Cl)c1)c1cc(I)cc(I)c1O [Rafoxanide]	6900 nM		> 10 µM	
NC(=O)c1ncn([C@@H]2O[C@H](CO)[C@@H](O)[C@H]2O)n1 [Ribavirin]	1000 nM	> 10 µM	> 10 µM	IC50 (rHCoVs-OC43): 1000 nM; IC50 (rHCoVs-OC43; 48 h): 1000 nM
Cc1cc(/C=C/C#N)cc(C)c1Nc1ccnc(Nc2ccc(C#N)cc2)n1 [Rilpivirine]	> 10000 nM		10 µM	
Cc1nc2n(c(=O)c1CCN1CCC(c3noc4cc(F)ccc34)CC1)CCCC2 [Risperidone]			> 10 µM	
CN[C@H]1CC[C@@H](c2ccc(Cl)c(Cl)c2)c2ccccc21 [Sertraline hydrochloride]		> 10 µM	> 10 µM	
C=CC[C@@H]1/C=C(\C)C[C@H](C)C[C@H](OC)[C@H]2O[C@@](O)(C(=O)C(=O)N3CCCC[C@H]3C(=O)O[C@H](/C(C)=C/[C@@H]3CC[C@@H](O)[C@H](OC)C3)[C@H](C)[C@@H](O)CC1=O)[C@H](C)C[C@@H]2OC [Tacrolimus hydrate]	3300 nM		> 10 µM	
CC/C(=C(\c1ccccc1)c1ccc(OCCN(C)C)cc1)c1ccccc1 [Tamoxifen]			> 10 µM	
CSc1ccc2c(c1)N(CCC1CCCCN1C)c1ccccc1S2 (stereo not drawn) [Thioridazine hydrochloride]		> 10 µM	> 10 µM	
Clc1ccc(C(Cn2ccnc2)OCc2ccsc2Cl)c(Cl)c1 (stereo not drawn) [Tioconazole]			> 10 µM	EC50 (rHCoVs-OC43; HRT-18, 48 h): 4100 nM
CN(C)CCOc1ccc(/C(=C(/CCCl)c2ccccc2)c2ccccc2)cc1 [Toremifene Citrate]	2600 nM	> 10 µM	> 10 µM	IC50 (rHCoVs-OC43; 48 h): 2600 nM
CN1CCN(CCCN2c3ccccc3Sc3ccc(C(F)(F)F)cc32)CC1 [Trifluoperazine dihydrochloride]	2900 nM	> 10 µM	> 10 µM	EC50 (SARS-CoV-2 [1]): > 10000 nM; inhibitory effect on viral replication (SARS-CoV-2 [1]; drug alone, SARS-CoV-2, words): did not show any significant inhibition of viral replication; CC50 at 48 h [2]: > 10000 nM; IC50 (rHCoVs-OC43; [6]): 2900 nM; IC50 (rHCoVs-OC43; [7]): 2900 nM
Cc1ccc(Sc2ccccc2N2CCNCC2)c(C)c1 [Vortioxetine hydrobromide]	2400 nM		> 10 µM	
Cc1ccc(Sc2ccccc2N2CCNCC2)c(C)c1 [Vortioxetine]		> 10 µM		IC50 (rHCoVs-OC43; [6]): 2400 nM; IC50 (rHCoVs-OC43; [7]): 2400 nM
CN(C)CCCN1c2ccccc2Sc2ccc(Cl)cc21 [chlorpromazine]	5100 nM		> 10 µM	
Benproperine phosphate	5600 nM			CC50 (HRT-18 cells; [10]): > 10000 nM
Monesin sodium sulfate	29 nM			IC50 (rHCoVs-OC43; [7]): 29 nM; CC50 (HRT-18 cells; [9]): 900 nM; CC50 (HRT-18 cells; [10]): 900 nM

From US20250057819A1, “DRUG COMBINATIONS FOR INHIBITING CORONAVIRUS REPLICATION” (priority 2021, published 2025)
